# Laboratory results as given in publication PMC11364104, “Discovery of SARS-CoV-2 papain-like protease (PL^pro) inhibitors with efficacy in a murine infection model” (Science Advances, 2024).
# Like-named read-outs stand apart in the source and are kept apart here.
# How the values were obtained:
# in vivo = assay: in vivo; parameters: species or system mouse; settings: for Vd: C57BL6, mouse, iv, 1 mg/kg, read-out: Vdss
# [1] = target: T1, human Nav1.5 sodium channel (Homo sapiens, UniProt Q14524); assay: hNav1.5 automated patch clamp; format: cell-based; settings: read-out: NaV IC50
# T1 construct: assay run at Metrion Biosciences Ltd; host or cells: CHO
# T1 sequence (Q14524 whole entry): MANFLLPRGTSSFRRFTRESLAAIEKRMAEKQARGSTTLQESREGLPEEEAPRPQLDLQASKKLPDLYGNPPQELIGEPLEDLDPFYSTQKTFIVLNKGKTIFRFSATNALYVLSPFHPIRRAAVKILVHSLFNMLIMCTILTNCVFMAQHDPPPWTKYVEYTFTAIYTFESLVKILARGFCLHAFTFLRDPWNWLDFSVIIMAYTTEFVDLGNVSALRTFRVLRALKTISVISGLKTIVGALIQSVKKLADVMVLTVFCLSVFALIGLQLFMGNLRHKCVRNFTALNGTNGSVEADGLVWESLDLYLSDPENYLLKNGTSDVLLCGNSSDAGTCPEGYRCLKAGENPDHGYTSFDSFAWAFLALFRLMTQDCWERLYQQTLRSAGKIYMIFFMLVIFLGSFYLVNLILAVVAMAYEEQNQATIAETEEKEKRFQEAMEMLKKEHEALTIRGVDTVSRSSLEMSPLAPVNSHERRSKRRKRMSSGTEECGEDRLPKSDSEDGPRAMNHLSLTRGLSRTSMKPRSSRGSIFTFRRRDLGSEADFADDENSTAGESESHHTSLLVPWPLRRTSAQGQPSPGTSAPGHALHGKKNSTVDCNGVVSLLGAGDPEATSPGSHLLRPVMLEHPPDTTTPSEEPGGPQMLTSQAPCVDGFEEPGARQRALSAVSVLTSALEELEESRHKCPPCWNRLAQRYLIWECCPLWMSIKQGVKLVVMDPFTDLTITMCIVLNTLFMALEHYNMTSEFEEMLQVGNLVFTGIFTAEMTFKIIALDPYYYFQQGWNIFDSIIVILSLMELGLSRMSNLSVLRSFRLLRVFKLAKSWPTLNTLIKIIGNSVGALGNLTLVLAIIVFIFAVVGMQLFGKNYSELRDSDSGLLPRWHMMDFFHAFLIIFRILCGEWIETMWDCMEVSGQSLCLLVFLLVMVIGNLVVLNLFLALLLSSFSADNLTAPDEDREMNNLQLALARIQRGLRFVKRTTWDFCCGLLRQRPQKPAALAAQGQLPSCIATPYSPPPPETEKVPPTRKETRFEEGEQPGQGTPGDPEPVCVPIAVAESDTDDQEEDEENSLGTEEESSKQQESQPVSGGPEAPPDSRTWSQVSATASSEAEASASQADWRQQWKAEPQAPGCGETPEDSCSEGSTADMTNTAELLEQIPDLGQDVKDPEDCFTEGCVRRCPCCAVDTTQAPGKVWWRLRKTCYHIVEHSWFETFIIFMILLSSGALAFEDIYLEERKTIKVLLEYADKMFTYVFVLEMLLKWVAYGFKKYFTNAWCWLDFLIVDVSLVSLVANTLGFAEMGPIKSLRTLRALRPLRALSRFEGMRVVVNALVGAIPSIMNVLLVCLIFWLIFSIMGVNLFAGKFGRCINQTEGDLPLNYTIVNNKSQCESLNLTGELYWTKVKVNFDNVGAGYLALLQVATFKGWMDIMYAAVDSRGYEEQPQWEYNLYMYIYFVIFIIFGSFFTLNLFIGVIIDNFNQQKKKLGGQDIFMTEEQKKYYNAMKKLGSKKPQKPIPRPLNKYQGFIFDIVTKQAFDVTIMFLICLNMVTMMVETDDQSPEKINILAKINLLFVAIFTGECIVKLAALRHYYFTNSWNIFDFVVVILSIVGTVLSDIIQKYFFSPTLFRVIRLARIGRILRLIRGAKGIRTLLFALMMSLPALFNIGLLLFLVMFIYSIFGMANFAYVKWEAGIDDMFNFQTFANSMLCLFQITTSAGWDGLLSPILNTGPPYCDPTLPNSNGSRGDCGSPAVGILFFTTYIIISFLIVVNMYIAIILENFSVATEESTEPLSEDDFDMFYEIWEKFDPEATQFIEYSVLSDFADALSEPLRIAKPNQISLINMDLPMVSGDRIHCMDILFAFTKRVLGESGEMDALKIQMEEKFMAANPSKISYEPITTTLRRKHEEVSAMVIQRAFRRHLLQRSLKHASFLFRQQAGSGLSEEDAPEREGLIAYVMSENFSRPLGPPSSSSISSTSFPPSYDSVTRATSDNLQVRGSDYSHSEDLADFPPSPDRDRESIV
# Description: Hz, and hCav1.2 current was measured as the peak current at 0 mV. All studies were […]
# Three vehicle periods each lasting 5 minutes were applied to establish a stable baseline.
# This was followed by the addition of increasing concentrations of test compound, with each exposure lasting 5 minutes. Patch clamp data were analyzed using Analyzer Software 6.4.72. Current amplitudes were determined by averaging the last 4 currents under each test condition. The percentage inhibition of each compound was determined by taking the ratio of current amplitude measured in the presence of various concentrations of the test compound (ICompound) versus the vehicle control current (IVehicle): % Inhibition = [1-(I Compound/IVehicle)] * 100%. A dose-response curve was generated and fit to the Hill equation by the Sophion Analyzer software to determine an IC50 value for each compound. The minimum and the […]
# CHO cells stably expressing the human Nav1.5 sodium channel (University of Pennsylvania, Philadelphia, PA, hNav1.5 clone #6) were cultured in Hams F12 + Glutamax media supplemented with 10% FBS and Geneticin (0.5 mg/mL) at 37°C and 5% CO2 and subcultured every 2-3 days in T175 flasks. […]
# Ionic currents were evaluated in the whole-cell configuration using the Qube384 platform using QChip 384x plates. […]
# [2] = in vivo, Male C57BL6 mouse, 1.0 mg/kg iv, solution, mean n=2
# [3] = in vivo, Male C57BL6 mouse, 10 mg/kg po, solution, mean n=2
# [4] = mouse Balb c female, PO 15 mg/kg, suspension
# [5] = mouse Balb c female, PO 50 mg/kg, suspension
# [6] = mouse Balb c female, PO 150 mg/kg, suspension
# [7] = mouse C57BL6 male, IV 1 mg/kg, solution
# [8] = mouse C57BL6 male, PO 10 mg/kg, solution
# [9] = mouse C57BL6 male, PO 30 mg/kg, solution
structure (smiles),measurement,setting,value
Cc1ccc(N2CCN(C)CC2)cc1C(=O)NC1(c2cc(-c3cnn(C)c3)nc3ccccc23)CC1 [Compound 4],Oral F,"in vivo; Male C57BL6 mouse, 10 mg/kg po, solution, mean n=2",53.10%
same,AUC(0-inf),in vivo; [2],708 ng·h/mL
same,half-life,in vivo; [2],3.29 h
same,clearance,"in vivo; in vivo, Male C57BL6 mouse, 1.0 mg/kg iv, solution, mean n=2, read-out: CLp",23.7 mL/min/kg
same,AUC(0-inf),in vivo; [3],3760 ng·h/mL
same,Cmax,in vivo; [3],862 ng/mL
same,half-life,in vivo; [3],2.19 h
same,Tmax,"in vivo; in vivo, Male C57BL6 mouse, 10 mg/kg po, solution, mean n=2, read-out: Tmax",2 h
same,Cmax,"in vivo; in vivo, mouse Balb c female, PO 15 mg/kg, suspension",1140 ng/mL
same,Cmax,"in vivo; in vivo, mouse Balb c female, PO 50 mg/kg, suspension",5410 ng/mL
same,Cmax,"in vivo; in vivo, mouse Balb c female, PO 150 mg/kg, suspension",12800 ng/mL
same,Cmax,"in vivo; in vivo, mouse C57BL6 male, PO 30 mg/kg, solution",1880 ng/mL
same,bioavailability,"in vivo; male, C57BL6, in vivo, po, 10 mg/kg, mouse (m), read-out: Oral F (%)",53.2%
same,Vd,"in vivo; male, in vivo, Male C57BL6 mouse, 1.0 mg/kg iv, solution, mean n=2",2.13 L/kg
same,Vd,"in vivo; male, in vivo, mouse (m), intravenous",2.12 L/kg
same,Vd,"in vivo; male, in vivo, mouse C57BL6 male, IV 1 mg/kg, solution",2.13 L/kg
same,% F Method 3 (Dose * AUC Extrap),in vivo; [4],74.8%
same,"AUC(0,inf)",in vivo; [4],7940 ng·h/mL
same,AUC(0-Tlast),in vivo; [4],7940 ng·h/mL
same,T1/2,in vivo; [4],1.95 h
same,Tmax,in vivo; [4],1.25 h
same,% F Method 3 (Dose * AUC Extrap),in vivo; [5],84.0%
same,"AUC(0,inf)",in vivo; [5],29800 ng·h/mL
same,AUC(0-Tlast),in vivo; [5],29700 ng·h/mL
same,T1/2,in vivo; [5],2.01 h
same,Tmax,in vivo; [5],0.375 h
same,% F Method 3 (Dose * AUC Extrap),in vivo; [6],84.0%
same,"AUC(0,inf)",in vivo; [6],89200 ng·h/mL
same,AUC(0-Tlast),in vivo; [6],89100 ng·h/mL
same,T1/2,in vivo; [6],2.47 h
same,Tmax,in vivo; [6],0.25 h
same,% of dose in feces,in vivo; [7],26.0%
same,"AUC(0,inf)",in vivo; [7],708 ng·h/mL
same,AUC(0-Tlast),in vivo; [7],706 ng·h/mL
same,T1/2,in vivo; [7],3.29 h
same,% F Method 3 (Dose * AUC Extrap),in vivo; [8],53.1%
same,% of dose in feces,in vivo; [8],12.6%
same,"AUC(0,inf)",in vivo; [8],3760 ng·h/mL
same,AUC(0-Tlast),in vivo; [8],3760 ng·h/mL
same,T1/2,in vivo; [8],2.19 h
same,Tmax,in vivo; [8],2 h
same,% F Method 3 (Dose * AUC Extrap),in vivo; [9],67.4%
same,% of dose in feces,in vivo; [9],10.8%
same,"AUC(0,inf)",in vivo; [9],14300 ng·h/mL
same,AUC(0-Tlast),in vivo; [9],14300 ng·h/mL
same,T1/2,in vivo; [9],2.17 h
same,Tmax,in vivo; [9],2 h
same,tolerability,"in vivo; mouse, oral, highest dose studied (500 mg/kg)",tolerated
same,IC50,[1],> 100 µM
